Source: publication PMC12888861, “Antibacterial activity of enmetazobactam against Acinetobacter spp.: a molecular dissection of mechanism of action and resistance determinants” (Antimicrobial Agents and Chemotherapy, 2025)
≈ marks a conversion by molar mass, not a printed value.

System: carbapenem-resistant A. baumannii (CRAB) isolates (n = 67)
Assay: MIC, broth microdilution (EUCAST), carbapenem-resistant A. baumannii isolates
Assay type: cell-based, Acinetobacter baumannii
Conditions: for MIC: Acinetobacter baumannii
From the text: The bacterial strains used in this study comprised 208 clinical isolates from the Spanish National Acinetobacter spp. 2020 Multicenter Collection, which was previously characterized in detail by our research group, including whole-genome sequencing, phylogenetics studies, clonal dynamics, and resistance mechanisms ([2], [29]). Additionally, a collection of A. baumannii ATCC 17978 transformants coding the blaOXA-23, blaOXA-24/40, blaOXA-51, blaOXA-58, blaOXA-143, and blaOXA-201 genes, previously constructed and described by our group ([30]), was used to determine the activity of enmetazobactam against strains carrying the main CHDLs of A. baumannii.
The antimicrobial susceptibility of the 208 Acinetobacter spp. isolates was assessed using the broth microdilution method, as described in the European Committee on Antimicrobial Susceptibility Testing (EUCAST) v.15 guidelines (http://www.eucast.org/clinical_breakpoints). […] MICs for enmetazobactam alone were assessed as well. […] Subsequently, MIC testing was also conducted with a collection of A. baumannii ATCC 17978 transformants expressing clinically relevant OXA-like carbapenemase genes.
The A. baumannii ATCC 19606 strain was used as the reference strain in all susceptibility experiments, in duplicate assays. Antibiotics were purchased from Sigma-Aldrich, except enmetazobactam and durlobactam, which were obtained from Advanz Pharma and MedChemExpress, respectively.

[1] = CHDLs-producing A. baumannii isolates (n = 67), durlobactam series, DUR fixed 4 mg/L in combinations

`C[n+]1ccn(C[C@@]2(C)[C@H](C(=O)[O-])N3C(=O)C[C@H]3S2(=O)=O)n1` [enmetazobactam] gave an MIC (MBC set, isolate Ab4, A. baumannii ST 2, ADC-30, OXA-66, ISAba1-OXA-23) of 64 µg/mL (≈ 204 µM), an MIC (MBC set, isolate Ab6, A. baumannii ST 2, ADC-30, OXA-66, ISAba1-OXA-23, TEM-12) of 64 µg/mL (≈ 204 µM) and an MIC (MBC set, isolate Ab9, A. baumannii ST 2, ADC-30, OXA-66, OXA-23, TEM-12) of 8 µg/mL (≈ 25.5 µM). For the same molecule, the MIC (isolate Ab56, ST 1, ADC-75, OXA-69, OXA-23, ETZ fixed 8 mg/L in combinations) was 64 µg/mL, the MIC (isolate Ab83, ST 25, ADC-5, OXA-64, OXA-23, DUR fixed at 4 mg/L in combinations) was 64 µg/mL and the MIC (isolate Ab83, ST 25, ADC-5, OXA-64, OXA-23, ETZ fixed 8 mg/L in combinations) was 64 µg/mL. The MIC (isolate Ab109, ST 1, ADC-75, OXA-69, OXA-23, DUR fixed at 4 mg/L in combinations) was 32 µg/mL, the MIC (isolate Ab109, ST 1, ADC-75, OXA-69, OXA-23, ETZ fixed 8 mg/L in combinations) was 32 µg/mL and the MIC (isolate Ab133, ST 2, ADC-30, OXA-66, OXA-58, TEM-12, DUR fixed at 4 mg/L in combinations) was 8 µg/mL. For the same molecule, the MIC (isolate Ab133, ST 2, ADC-30, OXA-66, OXA-58, TEM-12, ETZ fixed 8 mg/L in combinations) was 8 µg/mL, the MIC (isolate Ab134, ST 2, ADC-30, OXA-66, OXA-58, TEM-12, DUR fixed at 4 mg/L in combinations) was 8 µg/mL and the MIC (isolate Ab134, ST 2, ADC-30, OXA-66, OXA-58, TEM-12, ETZ fixed 8 mg/L in combinations) was 8 µg/mL. It also gave an MIC (isolate Ab137, ST 85, ADC-2, OXA-94, OXA-23, DUR fixed at 4 mg/L in combinations) of 64 µg/mL, an MIC (isolate Ab137, ST 85, ADC-2, OXA-94, OXA-23, ETZ fixed 8 mg/L in combinations) of 64 µg/mL and an MIC (isolate Ab138, ST 745, ADC-30, OXA-66, OXA-58, DUR fixed at 4 mg/L in combinations) of 64 µg/mL. For the same molecule, the MIC (isolate Ab138, ST 745, ADC-30, OXA-66, OXA-58, ETZ fixed 8 mg/L in combinations) was 64 µg/mL, the MIC (isolate Ab140, ST 85, ADC-2, OXA-94, OXA-23, DUR fixed at 4 mg/L in combinations) was 64 µg/mL and the MIC (isolate Ab140, ST 85, ADC-2, OXA-94, OXA-23, ETZ fixed 8 mg/L in combinations) was 64 µg/mL. It also gave an MIC (isolate Ab141, ST 745, ADC-30, OXA-66, OXA-58, DUR fixed at 4 mg/L in combinations) of 8 µg/mL, an MIC (isolate Ab141, ST 745, ADC-30, OXA-66, OXA-58, ETZ fixed 8 mg/L in combinations) of 8 µg/mL and an MIC (isolate Ab144, ST 745, ADC-30, OXA-66, OXA-58, DUR fixed at 4 mg/L in combinations) of 32 µg/mL. It also gave an MIC (isolate Ab144, ST 745, ADC-30, OXA-66, OXA-58, ETZ fixed 8 mg/L in combinations) of 32 µg/mL, an MIC (isolate Ab169, ST 2, ADC-30, OXA-66, OXA-23, DUR fixed at 4 mg/L in combinations) of 32 µg/mL and an MIC (isolate Ab169, ST 2, ADC-30, OXA-66, OXA-23, ETZ fixed 8 mg/L in combinations) of 64 µg/mL. It also gave an MIC (isolate Ab171, ST 2, ADC-30, OXA-66, OXA-23, DUR fixed at 4 mg/L in combinations) of 32 µg/mL, an MIC (isolate Ab171, ST 2, ADC-30, OXA-66, OXA-23, ETZ fixed 8 mg/L in combinations) of 64 µg/mL and an MIC (isolate Ab173, ST 2, ISAba1-ADC-30, OXA-66, OXA-23, DUR fixed at 4 mg/L in combinations) of 64 µg/mL. The MIC (isolate Ab173, ST 2, ISAba1-ADC-30, OXA-66, OXA-23, ETZ fixed 8 mg/L in combinations) was 64 µg/mL, the MIC (isolate Ab174, ST 2, ADC-30, OXA-66, OXA-23, DUR fixed at 4 mg/L in combinations) was 64 µg/mL and the MIC (isolate Ab174, ST 2, ADC-30, OXA-66, OXA-23, ETZ fixed 8 mg/L in combinations) was 64 µg/mL. It also gave an MIC (isolate Ab179, ST 2, ADC-30, OXA-66, OXA-23, DUR fixed at 4 mg/L in combinations) of 64 µg/mL, an MIC (isolate Ab179, ST 2, ADC-30, OXA-66, OXA-23, ETZ fixed 8 mg/L in combinations) of 64 µg/mL and an MIC (isolate Ab180, ST 2, ADC-30, OXA-66, OXA-24/40, DUR fixed at 4 mg/L in combinations) of 32 µg/mL. It also gave an MIC (isolate Ab180, ST 2, ADC-30, OXA-66, OXA-24/40, ETZ fixed 8 mg/L in combinations) of 32 µg/mL, an MIC (isolate Ab181, ST 2, ADC-30, OXA-66, OXA-23, DUR fixed at 4 mg/L in combinations) of 32 µg/mL and an MIC (isolate Ab181, ST 2, ADC-30, OXA-66, OXA-23, ETZ fixed 8 mg/L in combinations) of 32 µg/mL. For the same molecule, the MIC (isolate Ab182, ST 2, ADC-30, OXA-66, OXA-23, DUR fixed at 4 mg/L in combinations) was 16 µg/mL, the MIC (isolate Ab182, ST 2, ADC-30, OXA-66, OXA-23, ETZ fixed 8 mg/L in combinations) was 16 µg/mL and the MIC (isolate Ab183, ST 2, ADC-30, OXA-66, OXA-23, DUR fixed at 4 mg/L in combinations) was 32 µg/mL. For the same molecule, the MIC (isolate Ab183, ST 2, ADC-30, OXA-66, OXA-23, ETZ fixed 8 mg/L in combinations) was 32 µg/mL, the MIC (isolate Ab184, ST 2, ADC-30, OXA-66, OXA-23, DUR fixed at 4 mg/L in combinations) was 32 µg/mL and the MIC (isolate Ab184, ST 2, ADC-30, OXA-66, OXA-23, ETZ fixed 8 mg/L in combinations) was 32 µg/mL. It also gave an MIC (isolate Ab186, ST 2, ADC-30, OXA-66, OXA-23, DUR fixed at 4 mg/L in combinations) of 32 µg/mL, an MIC (isolate Ab186, ST 2, ADC-30, OXA-66, OXA-23, ETZ fixed 8 mg/L in combinations) of 32 µg/mL and an MIC (isolate Ab191, ST 2, ADC-30, OXA-66, OXA-23, DUR fixed at 4 mg/L in combinations) of 64 µg/mL. The MIC (isolate Ab191, ST 2, ADC-30, OXA-66, OXA-23, ETZ fixed 8 mg/L in combinations) was 64 µg/mL, the MIC (isolate Ab192, ST 2, ADC-30, OXA-66, OXA-23, DUR fixed at 4 mg/L in combinations) was 32 µg/mL and the MIC (isolate Ab192, ST 2, ADC-30, OXA-66, OXA-23, ETZ fixed 8 mg/L in combinations) was 64 µg/mL. For the same molecule, the MIC (isolate Ab194, ST 2, ADC-30, OXA-66, OXA-23, DUR fixed at 4 mg/L in combinations) was 64 µg/mL, the MIC (isolate Ab194, ST 2, ADC-30, OXA-66, OXA-23, ETZ fixed 8 mg/L in combinations) was 64 µg/mL and the MIC (isolate Ab199, ST 2, ADC-30, OXA-66, OXA-23, DUR fixed at 4 mg/L in combinations) was 32 µg/mL. It also gave an MIC (isolate Ab199, ST 2, ADC-30, OXA-66, OXA-23, ETZ fixed 8 mg/L in combinations) of 32 µg/mL, an MIC (isolate Ab201, ST 2, ADC-30, OXA-66, OXA-23, DUR fixed at 4 mg/L in combinations) of 64 µg/mL and an MIC (isolate Ab201, ST 2, ADC-30, OXA-66, OXA-23, ETZ fixed 8 mg/L in combinations) of 64 µg/mL. The MIC (isolate Ab204, ST 2, ADC-30, OXA-66, OXA-23, DUR fixed at 4 mg/L in combinations) was 32 µg/mL, the MIC (isolate Ab204, ST 2, ADC-30, OXA-66, OXA-23, ETZ fixed 8 mg/L in combinations) was 32 µg/mL and the MIC50 [1] was 64 µg/mL. The MIC90 [1] was 64 µg/mL, the “MIC distribution 0.12” value (cumulative % of CHDLs-producing A. baumannii isolates (n = 67) at MIC 0.12 mg/L, DUR fixed 4 mg/L in combinations) was 0.0% and the “MIC distribution 0.25” value (cumulative % of CHDLs-producing A. baumannii isolates (n = 67) at MIC 0.25 mg/L, DUR fixed 4 mg/L in combinations) was 0.0%. For the same molecule, the “MIC distribution 0.5” value (cumulative % of CHDLs-producing A. baumannii isolates (n = 67) at MIC 0.5 mg/L, DUR fixed 4 mg/L in combinations) was 0.0%, the “MIC distribution 1” value (cumulative % of CHDLs-producing A. baumannii isolates (n = 67) at MIC 1 mg/L, DUR fixed 4 mg/L in combinations) was 0.0% and the “MIC distribution 2” value (cumulative % of CHDLs-producing A. baumannii isolates (n = 67) at MIC 2 mg/L, DUR fixed 4 mg/L in combinations) was 0.0%. The “MIC distribution 4” value (cumulative % of CHDLs-producing A. baumannii isolates (n = 67) at MIC 4 mg/L, DUR fixed 4 mg/L in combinations) was 10.4%, the “MIC distribution 8” value (cumulative % of CHDLs-producing A. baumannii isolates (n = 67) at MIC 8 mg/L, DUR fixed 4 mg/L in combinations) was 22.4% and the “MIC distribution 16” value (cumulative % of CHDLs-producing A. baumannii isolates (n = 67) at MIC 16 mg/L, DUR fixed 4 mg/L in combinations) was 25.4%. For the same molecule, the “MIC distribution 32” value (cumulative % of CHDLs-producing A. baumannii isolates (n = 67) at MIC 32 mg/L, DUR fixed 4 mg/L in combinations) was 46.3%, the “MIC distribution ≤0.06” value (cumulative % of CHDLs-producing A. baumannii isolates (n = 67) at MIC ≤0.06 mg/L, DUR fixed 4 mg/L in combinations) was 0.0% and the “MIC distribution ≥64” value (cumulative % of CHDLs-producing A. baumannii isolates (n = 67) at MIC ≥64 mg/L, DUR fixed 4 mg/L in combinations) was 100%. The “MIC distribution 0.12” value (cumulative share of CRAB isolates (n = 67) at MIC 0.12 mg/L, ETZ fixed 8 mg/L in combinations) was 0, the “MIC distribution 0.25” value (cumulative share of CRAB isolates (n = 67) at MIC 0.25 mg/L, ETZ fixed 8 mg/L in combinations) was 0 and the “MIC distribution 0.5” value (cumulative share of CRAB isolates (n = 67) at MIC 0.5 mg/L, ETZ fixed 8 mg/L in combinations) was 0. For the same molecule, the “MIC distribution 1” value (cumulative share of CRAB isolates (n = 67) at MIC 1 mg/L, ETZ fixed 8 mg/L in combinations) was 0 and the “MIC distribution 2” value (cumulative share of CRAB isolates (n = 67) at MIC 2 mg/L, ETZ fixed 8 mg/L in combinations) was 0.
